Reference: PubChem BioAssay (NCI)
Values joined by “and” are separate entries in the source; they are usually repeats but may differ in a detail not shown here. Equal values may be shown once.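 96-well plates; 48 h exposure; 5 concentrations. Endpoints by linear interpolation between flanking doses. Not reached: highest tested concentration assigned. GI50 is the concentration that inhibits growth by half. Definition used: TGI = concentration required for complete inhibition of growth.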

The molecules below were run on CCRF-CEM leukemia (assay: growth of human tumour cells (NCI), 48 h).
`N#Cc1c(NN)n(C2OC(CO)C(O)C2O)c2ncnc(N)c12` (configuration not stated) was tested, and the GI50 was 0.13 µM and the TGI was 0.605 µM.
`N#CC(N)(C(=O)CCC(=O)Nc1cccc(Cl)c1)c1ccc(Cl)cc1` (configuration not stated) gave a TGI of over 100 µM.
`COc1cnc2c(c1)C(=O)c1c-2n(CCCNC(C)C)c(=O)c2cc(Cl)ccc12` was tested, and the GI50 was 0.0419 µM and the TGI was 1.06 µM.
`S=C(Nc1ccccc1)N(/N=C/C=C/c1ccccc1)c1nnc(-c2ccccc2)c(-c2ccccc2)n1` gave a TGI of over 100 µM.
`CN1CCN(CCOc2ccc(-c3cnc4c(-c5ccccc5F)cnn4c3)cc2)CC1` showed a GI50 of 1.85 µM and a TGI of 4.77 µM.

These molecules were tested on SNB-75 CNS (assay: growth of human tumour cells (NCI), 48 h).
`OC[C@H]1C[C@](O)(c2ccc(Cl)cc2)[C@@H](c2ccc(Cl)cc2)O1` was tested, and the GI50 was 22.9 µM and the TGI was 87.7 µM.
Work on `CC(C)N(C(=O)C12C3C4C5(C#N)C3C1(C#N)C5C42I)C(C)C` (configuration not stated) yielded a TGI of over 100 µM.
In the case of `COc1ccc2c3c([nH]c2c1[N+](=O)[O-])C(C)=NCC3`, the TGI is reported as over 100 µM.
Work on `CC(C)(C)CC(C)(C)c1cc2c(O)c(c1)Cc1cc(C(C)(C)CC(C)(C)C)cc(c1O)Cc1cc(C(C)(C)CC(C)(C)C)cc(c1O)Cc1cc(C(C)(C)CC(C)(C)C)cc(c1O)C2` yielded a TGI of over 100 µM.
With `C=CCCCCC/C=C\[C@H](O)C#CC#C/C=C/CO` the GI50 was over 100 µM and the TGI was over 100 µM.
Work on `Cc1cc([N+](=O)[O-])ccc1Nc1cccc(Cl)c1C` yielded a TGI of 52.7 µM.
With `O/N=C/C1C(OCc2ccccc2)C(OCc2ccccc2)C(OCc2ccccc2)CN1Cc1ccccc1` (configuration not stated) the GI50 was 11.5 µM and > 100 µM and the TGI was 33.1 µM and > 100 µM.
Work on `Cn1cc(CO)c2c1C(=O)C=C(N1CC1)C2=O` yielded a GI50 of under 0.01 µM and a TGI of 0.0444 µM.
Molecule `CC1=C(C(=O)Nc2ccccc2)C(c2ccccc2)C(C(=O)Nc2ccccc2)=C(C)N1` has a TGI of over 100 µM.
In the case of `Cc1nn(-c2ccccc2)c2nc(N3CCOCC3)nnc12`, the TGI is reported as over 100 µM.
Work on `[Cl][Hg][c]1cc(Br)cc(Br)c1` yielded a GI50 of 1.24 µM and a TGI of 3.43 µM.
For `C=C1C(=O)O[C@@H]2C[C@@H]1CC/C(C)=C/CC/C(C)=C/CC[C@@]2(C)O`, the GI50 was 26.4 µM and the TGI was 47.4 µM.
`O=C(CCn1[nH]c(=O)c(Cl)c(Cl)c1=O)NO` gave a TGI of over 100 µM.
`COc1ccc(C(C)=O)cc1N1C(=O)C2C(C1=O)C1(c3ccccc3)C(=O)C2(c2ccccc2)C(c2ccc(C)cc2)=C1c1ccc(C)cc1` (configuration not stated) was tested, and the GI50 was over 100 µM and the TGI was over 100 µM.
In the case of `[N-]=[N+]=NC12CC3C4CC5CC3C(C1)C(C5)C4C2`, the TGI is reported as over 100 µM.
Molecule `CN(C)c1nc2ccccc2[nH]1` has a TGI of over 100 µM.
`NNC(=S)N/N=C(\CC1OC(=O)c2ccccc21)c1ccccc1O` (configuration not stated) gave a TGI of 86.1 µM.
In the case of `COC(=O)C1=C(O)c2cc(OC)c(OC)cc2C(c2ccc(OC)c(OC)c2)C1` (configuration not stated), the TGI is reported as over 100 µM.
For `COC1(OC)CC2C(=O)N(Cc3ccccc3)C1C(S(=O)(=O)c1ccccc1)C2S(=O)(=O)c1ccccc1` (configuration not stated), the TGI was 27.6 µM.
`NC(=Nc1c([N+](=O)[O-])cnc2ccccc12)N1CCOCC1` gave a TGI of over 100 µM.
`CCN(CC)c1ccc2c(c1)OC(N)=C(C#N)C2c1cc(OC)c2c(c1)OCO2` (configuration not stated) gave a GI50 of 0.02 µM and a TGI of 42.5 µM.
`Cc1cc(CC(O)c2ccc(Cl)c(Cl)c2)nc(=O)[nH]1` (configuration not stated) was tested, and the TGI was 48.8 µM.
With `COC(=O)C(=Cc1cc(OC)ccc1OC)C(=O)OC` the TGI was 97 µM.
In the case of `CC1=NNC(=O)C2CCC(=O)N12` (configuration not stated), the TGI is reported as over 100 µM.
`CC(C)c1ccccc1NC(=O)CCc1n[nH]c(=S)o1` was tested, and the TGI was over 100 µM.
`CCCCC(C(=O)C(=O)NC1C2CC3CC(C2)CC1C3)C(=O)C(C)C` (configuration not stated) showed a TGI of over 100 µM.
In the case of `COC(=O)c1cc2c(s1)C(=O)c1ccccc1-2`, the TGI is reported as over 100 µM.
In the case of `CC(C)CCN1c2nc(Nc3cc(F)c(O)c(F)c3)ncc2N(C)C(=O)C1C` (configuration not stated), the GI50 is reported as 13.4 µM and the TGI is reported as 44.3 µM.
Work on `Cn1c2c(c3ccccc31)C1CCCCCCC1C1C(=O)OC(=O)C21` (configuration not stated) yielded a TGI of over 100 µM.
Work on `Cc1ccc(S(=O)(=O)N(CC(=O)O)c2ccccc2)cc1` yielded a TGI of over 100 µM.
`COc1ccc(C(=O)C(c2ccc(OC)cc2)C2(O)C(=O)Nc3ccc([N+](=O)[O-])cc32)cc1` (configuration not stated) gave a TGI of over 100 µM.
For `O=C(/C=C/c1ccccc1O)c1ccccc1O`, the TGI was over 100 µM.
For `Cc1nc2c(-c3cnc(N)nc3)nc(N3CCOCC3)nc2n1C(C)C`, the TGI was 0.334 µM and 0.272 µM.
For `COc1ccc(/C=C(/C(=O)N2CCN(c3ccccc3)CC2)c2cc(OC)c(OC)c(OC)c2)cc1O`, the GI50 was 0.293 µM and the TGI was over 100 µM.
With `N#Cc1c(NN)n(C2OC(CO)C(O)C2O)c2ncnc(N)c12` (configuration not stated) the GI50 was 0.388 µM and the TGI was 9.56 µM.
Work on `N#CC(N)(C(=O)CCC(=O)Nc1cccc(Cl)c1)c1ccc(Cl)cc1` (configuration not stated) yielded a TGI of over 100 µM.
Work on `COc1cnc2c(c1)C(=O)c1c-2n(CCCNC(C)C)c(=O)c2cc(Cl)ccc12` yielded a GI50 of 0.146 µM and a TGI of 1.59 µM.
Work on `S=C(Nc1ccccc1)N(/N=C/C=C/c1ccccc1)c1nnc(-c2ccccc2)c(-c2ccccc2)n1` yielded a TGI of over 100 µM.
`CN1CCN(CCOc2ccc(-c3cnc4c(-c5ccccc5F)cnn4c3)cc2)CC1` was tested, and the GI50 was 1.35 µM and the TGI was 2.66 µM.

These molecules were tested on UO-31 renal (assay: growth of human tumour cells (NCI), 48 h).
Molecule `OC[C@H]1C[C@](O)(c2ccc(Cl)cc2)[C@@H](c2ccc(Cl)cc2)O1` has a GI50 of 19.4 µM and a TGI of 50.3 µM.
With `CC(C)N(C(=O)C12C3C4C5(C#N)C3C1(C#N)C5C42I)C(C)C` (configuration not stated) the TGI was over 100 µM.
Molecule `COc1ccc2c3c([nH]c2c1[N+](=O)[O-])C(C)=NCC3` has a TGI of over 100 µM.
In the case of `CC(C)(C)CC(C)(C)c1cc2c(O)c(c1)Cc1cc(C(C)(C)CC(C)(C)C)cc(c1O)Cc1cc(C(C)(C)CC(C)(C)C)cc(c1O)Cc1cc(C(C)(C)CC(C)(C)C)cc(c1O)C2`, the TGI is reported as over 100 µM.
`C=CCCCCC/C=C\[C@H](O)C#CC#C/C=C/CO` was tested, and the GI50 was 61.9 µM and the TGI was over 100 µM.
`Cc1cc([N+](=O)[O-])ccc1Nc1cccc(Cl)c1C` gave a TGI of 24.4 µM.
For `O/N=C/C1C(OCc2ccccc2)C(OCc2ccccc2)C(OCc2ccccc2)CN1Cc1ccccc1` (configuration not stated), the GI50 was 20 µM and 5.22 µM and the TGI was 65.9 µM and > 100 µM.
`CC1=C(C(=O)Nc2ccccc2)C(c2ccccc2)C(C(=O)Nc2ccccc2)=C(C)N1` was tested, and the TGI was over 100 µM.
Molecule `Cc1nn(-c2ccccc2)c2nc(N3CCOCC3)nnc12` has a TGI of over 100 µM.
`[Cl][Hg][c]1cc(Br)cc(Br)c1` gave a GI50 of 4.64 µM and a TGI of 15.5 µM.
With `CC(C)c1ccc2c(c1)CC[C@@H]1[C@@](C)(C(=O)O)CCC[C@]21C` the GI50 was 2.76 µM and the TGI was 12 µM.
Molecule `C=C1C(=O)O[C@@H]2C[C@@H]1CC/C(C)=C/CC/C(C)=C/CC[C@@]2(C)O` has a GI50 of 16.3 µM and a TGI of 33.4 µM.
Work on `CCOc1ccccc1C=C1c2ccccc2C(=O)c2ccccc21` yielded a TGI of 13.6 µM.
`O=C(CCn1[nH]c(=O)c(Cl)c(Cl)c1=O)NO` gave a TGI of over 100 µM.
`COc1ccc(C(C)=O)cc1N1C(=O)C2C(C1=O)C1(c3ccccc3)C(=O)C2(c2ccccc2)C(c2ccc(C)cc2)=C1c1ccc(C)cc1` (configuration not stated) was tested, and the GI50 was over 100 µM and the TGI was over 100 µM.
`[N-]=[N+]=NC12CC3C4CC5CC3C(C1)C(C5)C4C2` showed a TGI of over 100 µM.
Work on `CN(C)c1nc2ccccc2[nH]1` yielded a TGI of over 100 µM.
Molecule `NNC(=S)N/N=C(\CC1OC(=O)c2ccccc21)c1ccccc1O` (configuration not stated) has a TGI of over 100 µM.
`COC(=O)C1=C(O)c2cc(OC)c(OC)cc2C(c2ccc(OC)c(OC)c2)C1` (configuration not stated) gave a TGI of over 100 µM.
With `COC1(OC)CC2C(=O)N(Cc3ccccc3)C1C(S(=O)(=O)c1ccccc1)C2S(=O)(=O)c1ccccc1` (configuration not stated) the TGI was 31.3 µM.
Work on `NC(=Nc1c([N+](=O)[O-])cnc2ccccc12)N1CCOCC1` yielded a TGI of over 100 µM.
Molecule `CCN(CC)c1ccc2c(c1)OC(N)=C(C#N)C2c1cc(OC)c2c(c1)OCO2` (configuration not stated) has a GI50 of 0.403 µM and a TGI of over 43.3 µM.
`Cc1cc(CC(O)c2ccc(Cl)c(Cl)c2)nc(=O)[nH]1` (configuration not stated) was tested, and the TGI was over 100 µM.
`COC(=O)C(=Cc1cc(OC)ccc1OC)C(=O)OC` was tested, and the TGI was 50.9 µM.
`CC1=NNC(=O)C2CCC(=O)N12` (configuration not stated) gave a TGI of over 100 µM.
For `CC(C)c1ccccc1NC(=O)CCc1n[nH]c(=S)o1`, the TGI was over 100 µM.
`CCCCC(C(=O)C(=O)NC1C2CC3CC(C2)CC1C3)C(=O)C(C)C` (configuration not stated) showed a TGI of over 100 µM.
`COC(=O)c1cc2c(s1)C(=O)c1ccccc1-2` gave a TGI of over 100 µM.
`CC(C)CCN1c2nc(Nc3cc(F)c(O)c(F)c3)ncc2N(C)C(=O)C1C` (configuration not stated) gave a GI50 of 0.939 µM and a TGI of 16.8 µM.
`Cn1c2c(c3ccccc31)C1CCCCCCC1C1C(=O)OC(=O)C21` (configuration not stated) gave a TGI of over 100 µM.
`Cc1ccc(S(=O)(=O)N(CC(=O)O)c2ccccc2)cc1` showed a TGI of over 100 µM.
With `COc1ccc(C(=O)C(c2ccc(OC)cc2)C2(O)C(=O)Nc3ccc([N+](=O)[O-])cc32)cc1` (configuration not stated) the TGI was over 100 µM.
With `O=C(/C=C/c1ccccc1O)c1ccccc1O` the TGI was over 100 µM.
`Cc1nc2c(-c3cnc(N)nc3)nc(N3CCOCC3)nc2n1C(C)C` was tested, and the TGI was 0.452 µM and 0.401 µM.
`COc1ccc(/C=C(/C(=O)N2CCN(c3ccccc3)CC2)c2cc(OC)c(OC)c(OC)c2)cc1O` gave a TGI of 90.8 µM.
`N#Cc1c(NN)n(C2OC(CO)C(O)C2O)c2ncnc(N)c12` (configuration not stated) showed a GI50 of 0.0417 µM and a TGI of 0.774 µM.
In the case of `N#CC(N)(C(=O)CCC(=O)Nc1cccc(Cl)c1)c1ccc(Cl)cc1` (configuration not stated), the TGI is reported as over 100 µM.
